Measured values published in paper PMC12702776 (Cancer Gene Therapy, 2025).

What was measured:
IGR1 cells = details: cited from earlier work
RAC1^WT = molecular target: T1, RAC1^WT (Homo sapiens, UniProt P63000); experiment: Nucleotide-binding assay (stopped-flow fluorimetry)
T1 construct: GST (N); made in house; host or cells: Escherichia coli
Experimental: (§1) The nucleotide-binding properties of RAC1 GTPases were assessed by stopped-flow fluorimetry, as described. Nucleotide association and dissociation rates were measured using fluorescent nucleotides (mdGDP and mGppNHp) and varying RAC1 concentrations. Association (kon) and dissociation (koff) rate constants were determined, and equilibrium dissociation constants (Kd) were calculated as described in Box 2. Detailed procedures are provided in the Supplementary Materials.
(§2) Nucleotide-binding assay. The nucleotide-binding properties of the RAC1 GTPases were assessed using a stopped-flow fluorimetry approach, as described (10). ucleotide association was measured with 0.1 µM fluorescently labeled nucleotides, such as mdGDP and mGppNHp, and varying concentrations of nucleotide-free RAC1 proteins (0.25–5 μM). Measurements were conducted in a buffer containing 30 mM Tris-HCl, pH 7.5, 10 mM KH2PO4/K2HPO4, 5 mM MgCl2, and 3 mM DTT, at 25 °C. The association rate constant (kon) was determined by plotting the observed rate constants (kobs) against the concentration of nucleotide-free RAC1 and analyzing the slope via linear regression using Origin software. The dissociation rate constant (koff) of the fluorescent nucleotide from RAC1 proteins (0.1 µM) was measured by adding a 200-fold excess of the non-fluorescent nucleotide (20 µM). The affinity of RAC1 proteins for GDP and GppNHp was calculated by dividing koff by kon, yielding the equilibrium dissociation constants (Kd), as defined in Box 2 of the main text.

RAC1^F28L = molecular target: T2, RAC1^F28L (Homo sapiens, UniProt P63000, F28L); experiment: as above; details: faster than RAC1 WT
T2 construct: GST (N); made in house; host or cells: Escherichia coli
Experimental: as §1, §2

RAC1^P29S = molecular target: T3, RAC1^P29S (Homo sapiens, UniProt P63000, P29S); experiment: as above; details: RAC1 P29S compared to RAC1 WT
T3 construct: GST (N); made in house; host or cells: Escherichia coli
Experimental: as §1, §2

RAC1^T17N = molecular target: T4, RAC1^T17N (Homo sapiens, UniProt P63000, T17N); experiment: as above
T4 construct: GST (N); made in house; host or cells: Escherichia coli
Experimental: as §1, §2

DOCK2 = molecular target: T5, DOCK2 (Homo sapiens, UniProt Q92608); experiment: Active GTPase pull-down assay in IGR1 melanoma cells treated with DOCK2 inhibitor; assay type: cell-based; details: serum-stimulated IGR1 cells, 25 µM and 100 µM
T5 construct: endogenous in cells; host or cells: IGR1 human melanoma cells
T5 sequence (Q92608 whole entry): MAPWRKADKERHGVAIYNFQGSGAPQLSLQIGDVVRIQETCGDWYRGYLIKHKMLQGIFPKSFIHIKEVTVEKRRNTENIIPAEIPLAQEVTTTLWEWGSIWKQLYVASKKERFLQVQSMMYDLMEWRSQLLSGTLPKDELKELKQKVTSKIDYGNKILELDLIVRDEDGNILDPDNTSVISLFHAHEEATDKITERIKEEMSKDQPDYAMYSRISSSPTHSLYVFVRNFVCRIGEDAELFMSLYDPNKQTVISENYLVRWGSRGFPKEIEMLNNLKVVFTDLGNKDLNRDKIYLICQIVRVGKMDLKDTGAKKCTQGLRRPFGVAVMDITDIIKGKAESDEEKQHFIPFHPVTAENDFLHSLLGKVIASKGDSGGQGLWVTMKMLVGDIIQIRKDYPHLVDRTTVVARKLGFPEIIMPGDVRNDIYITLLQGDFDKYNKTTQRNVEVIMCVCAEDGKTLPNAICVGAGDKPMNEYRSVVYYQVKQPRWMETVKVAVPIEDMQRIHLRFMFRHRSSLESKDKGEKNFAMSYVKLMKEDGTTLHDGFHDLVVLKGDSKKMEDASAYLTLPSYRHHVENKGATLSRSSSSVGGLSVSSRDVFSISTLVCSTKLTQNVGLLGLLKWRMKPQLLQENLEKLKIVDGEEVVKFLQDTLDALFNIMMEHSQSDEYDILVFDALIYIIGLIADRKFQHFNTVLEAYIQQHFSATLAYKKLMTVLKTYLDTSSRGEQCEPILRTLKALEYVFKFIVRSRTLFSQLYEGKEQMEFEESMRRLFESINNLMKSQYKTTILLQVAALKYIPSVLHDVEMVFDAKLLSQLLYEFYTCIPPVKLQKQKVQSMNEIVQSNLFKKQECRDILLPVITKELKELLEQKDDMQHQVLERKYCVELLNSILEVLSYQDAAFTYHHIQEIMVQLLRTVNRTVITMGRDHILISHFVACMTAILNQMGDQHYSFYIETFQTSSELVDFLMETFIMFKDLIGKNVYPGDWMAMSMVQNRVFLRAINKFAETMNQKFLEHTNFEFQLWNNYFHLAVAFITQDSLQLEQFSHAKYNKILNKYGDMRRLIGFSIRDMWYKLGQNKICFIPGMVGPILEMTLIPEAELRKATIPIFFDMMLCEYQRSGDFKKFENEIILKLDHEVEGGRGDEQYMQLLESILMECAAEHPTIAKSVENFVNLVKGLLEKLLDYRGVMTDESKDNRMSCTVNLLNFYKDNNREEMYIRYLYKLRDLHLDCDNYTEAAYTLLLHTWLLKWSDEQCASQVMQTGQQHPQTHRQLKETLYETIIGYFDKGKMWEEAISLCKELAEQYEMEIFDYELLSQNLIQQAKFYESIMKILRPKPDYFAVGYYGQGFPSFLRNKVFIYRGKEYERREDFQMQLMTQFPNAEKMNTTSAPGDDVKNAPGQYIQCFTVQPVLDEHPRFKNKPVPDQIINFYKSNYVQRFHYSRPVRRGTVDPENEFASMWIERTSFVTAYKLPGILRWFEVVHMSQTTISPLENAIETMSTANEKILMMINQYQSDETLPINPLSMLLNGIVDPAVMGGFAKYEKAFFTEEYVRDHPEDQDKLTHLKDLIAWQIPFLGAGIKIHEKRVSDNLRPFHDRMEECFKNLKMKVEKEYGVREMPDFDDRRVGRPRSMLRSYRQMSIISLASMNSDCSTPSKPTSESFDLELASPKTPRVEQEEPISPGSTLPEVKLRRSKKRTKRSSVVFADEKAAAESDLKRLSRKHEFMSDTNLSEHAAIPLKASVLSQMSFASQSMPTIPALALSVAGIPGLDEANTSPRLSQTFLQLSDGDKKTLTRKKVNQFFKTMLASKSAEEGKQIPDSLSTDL
Experimental: HEK-293T and IGR1 human melanoma cells were cultured under serum-stimulated and serum-starved conditions in DMEM supplemented with 10% FBS and 1% penicillin/streptomycin. The HEK-293T cells were then transfected with RAC1 constructs containing N-terminal 10×His–triple FLAG tags using TurboFect™ (Thermo Fisher Scientific), according to the manufacturer’s protocol. The HEK-293T cells were cultured and harvested under serum-stimulated or serum-starved conditions without additional treatment. IGR1 cells, in contrast, were treated with the DOCK2 inhibitor CPYPP (MedChemExpress) at 25 µM and 100 µM concentrations, with 0.5% DMSO as a vehicle control. After treatment, cells were harvested and lysed, and protein concentrations were determined using the Bradford assay. Detailed protocols, including buffer compositions, are provided in the Supplementary Information.
Experiments were conducted under both serum-stimulated and serum-starved conditions, as described previously. […] After incubation, the beads were washed and analyzed by SDS-PAGE followed by immunoblotting. […]
Cell culture, transfection, and treatment. […] The resulting supernatants were collected for downstream applications, and protein concentrations were determined using the Bradford assay.
Active GTPase pull-down assay. […] Samples were analyzed by SDS-PAGE and immunoblotting […]

DHR2 domain of DOCK2 = system: DHR2 domain of DOCK2; design: method as in PMID 22520755; details: cited from earlier work

Row | Compound | sensitivity of IGR1 cells (RAC1^P29S, BRAF^V600K) (IGR1 cells) | Kd (RAC1^WT) [nM] | Kd, lower affinity P29S vs WT (RAC1^P29S) [fold] | kon, reduction P29S vs WT (RAC1^P29S) [fold] | also measured
1 | CCCS(=O)(=O)Nc1ccc(F)c(C(=O)c2c[nH]c3ncc(-c4ccc(Cl)cc4)cc23)c1F [vemurafenib] | reduced sensitivity | – | – | – | –
2 | CNc1ccccc1C(=O)O[C@H]1C[C@H](n2cnc3c(=O)[nH]c(N)nc32)O[C@@H]1COP(=O)(O)OP(=O)(O)O [mdGDP, methylanthraniloyl-2'-deoxy-guanosine 5′-diphosphate] | – | 0.3 | 147 | 14 | intrinsic nucleotide dissociation rate, F28L vs WT (RAC1^F28L): 20 fold; koff, increase P29S vs WT (RAC1^P29S): 10 fold; decrease in binding affinity, T17N vs WT (RAC1^T17N; RAC1 T17N compared to RAC1 WT): 1346 fold; dissociation rate, T17N vs WT (RAC1^T17N; higher than RAC1 WT): 410 fold
3 | CC(C)(C)c1nc(-c2cccc(NS(=O)(=O)c3c(F)cccc3F)c2F)c(-c2ccnc(N)n2)s1 [dabrafenib] | reduced sensitivity | – | – | – | –
4 | methylanthraniloyl guanosine 5'-[beta,gamma-imido]triphosphate [mGppNHp] | – | 0.6 | 289 | 27 | –
5 | O=C1NN(c2ccccc2)C(=O)/C1=C/C=C/c1ccccc1Cl [CPYPP] | – | – | – | – | effect on RAC1^P29S activation (DOCK2): reduced RAC1^P29S activation in a dose-dependent manner; effect on DOCK2 catalytic activity (DHR2 domain of DOCK2): reversibly blocking its catalytic activity
